These are literature values, as cited in patent US7501533B2, “Process for preparing lysophosphatidylcholine” (Chem SpA, priority 2004, dated 2009).

The test system of the series is rats. Conditions: from Sax and others, Dangerous Properties of Industrial Materials, edition VII.

For the compound `CCC[CH2][Sn](=[O])[CH2]CCC` [dibutyltin oxide], the “LD50 (acute oral toxicity)” value was “LD50 = 44.9 mg/kg”.
Turning to `CCCCCCC[CH2][Sn](=[O])[CH2]CCCCCCC` [dioctyltin oxide], the “LD50 (acute oral toxicity)” value is on record as “LD50 = 2500 mg/kg”.
